Test [1] relates to PI3K/Akt signaling in NIH3T3 cells. The test can be described thus: insulin-stimulated Akt phosphorylation, Western blot, NIH3T3 cells. The format is cell-based. Conditions: 1 μM insulin for 5 min, immunoblot. The protocol:
Figure 8 Treatment with 64 prodrug inhibited PI3K/Akt signaling. NIH3T3 cells were […] for 12 h and were treated with the indicated concentrations of 37 and 64. Cells were next stimulated with 1 μM insulin for 5 min, and total cell lysates were prepared. Immunoblot analysis was conducted for the expression levels of p‐AKT and GAPDH. The immunoblot is representative of three independent experiments.
NIH3T3 cells were seeded in a 96‐well plate and starved overnight (ON) with serum‐free DMEM high glucose GlutaMAXTM (Gibco) supplemented with 5000 U mL^−1 penicillin–streptomycin (Gibco). Cells were then incubated for 1 h with increasing concentrations of 64, 37, or DMSO. Subsequently, cells were stimulated for 5 min with 1 μM of insulin (#91077C, Sigma–Aldrich, USA). Cells were lysed and protein extracts were analyzed by western blot to assess the phosphorylation level of Akt on Ser473.

In the next test the target is hPI3K‐C2α (PIK3C2A) (Homo sapiens, UniProt O00443). The test can be described thus: lipid kinase assay (ADP-Glo), PI3K-C2α. In kind it is biochemical. The following applies: Table 2; mean of at least three determinations, 95 % confidence intervals; read-out: IC50 PI3Kc2α. The protocol:
In vitro selection, lipid kinase assay: To determine the inhibitory activity of the new molecular entities on PI3K enzyme, a lipid kinase assay was performed: recombinant proteins (30 ng), human PI3Kα (PIK3CA/PIK3R1, #1161‐1165‐1 ProQinase–Germany), hPI3Kβ (PIK3CB wt/PIK3R1, #1168‐1165‐1 ProQinase, Germany), hPI3Kγ (PIK3CG, #1163‐0000‐1 ProQinase, Germany), hPI3Kδ (PIK3CD/PIK3R1, #1162–1165‐1 ProQinase, Germany), hPI3K‐C2α (PIK3C2A, #14‐906 Merck Millipore_Merck KGaA, Germany), hPI3K‐C2β (PIK3C2B, #14‐907 Merck Millipore_Merck KGaA, Germany), hPI3K‐c2γ (PIK3C2G, #1207‐0000‐1 ProQinase, Germany), and hVps34 (PIK3C3, #1160‐0000‐1 ProQinase, Germany), were incubated in kinase buffer {12.5 μL; 20 mM Tris‐HCl pH 7.5, 10 mM MgCl2, 10 μM ATP, 0.05 mg mL^−1 BSA, 0.5 mM EDTA, 5 mM HEPES pH 7.5, for PI3Kα,PI3Kβ, PI3Kγ, PI3Kδ, PI3KC‐2α, and PI3KC‐2γ; 15 mM MnCl2, 5 mM EGTA, 100 μM ATP, 50 mM HEPES pH 7.5, 100 mM NaCl, and 0.03 % CHAPS for PI3K‐C2β and VPS34 {BSA=bovine serum albumin; EDTA=ethylenediaminetetraacetic acid; HEPES=4‐(2‐hydroxyethyl)‐1‐piperazineethanesulfonic acid; EGTA=ethylene glycol‐bis(2‐aminoethylether)‐N,N,N′,N′‐tetraacetic acid; CHAPS=3‐[(3‐cholamidopropyl)dimethylammonio]‐1‐propanesulfonate}. In the reaction, the ATP concentration used for different PI3Ks was defined on the basis of the Michaelis–Menten kinetics of each enzyme, provided by the supplier. […]

Test [2] addresses T1, human PI3Kα (PIK3CA/PIK3R1) (Homo sapiens, UniProt P42336).
T1 construct: purchased ProQinase, Germany 1161‐1165‐1
The test can be described thus: lipid kinase assay (ADP-Glo), PI3Kα. The format is biochemical.

T1 sequence (P42336 whole entry): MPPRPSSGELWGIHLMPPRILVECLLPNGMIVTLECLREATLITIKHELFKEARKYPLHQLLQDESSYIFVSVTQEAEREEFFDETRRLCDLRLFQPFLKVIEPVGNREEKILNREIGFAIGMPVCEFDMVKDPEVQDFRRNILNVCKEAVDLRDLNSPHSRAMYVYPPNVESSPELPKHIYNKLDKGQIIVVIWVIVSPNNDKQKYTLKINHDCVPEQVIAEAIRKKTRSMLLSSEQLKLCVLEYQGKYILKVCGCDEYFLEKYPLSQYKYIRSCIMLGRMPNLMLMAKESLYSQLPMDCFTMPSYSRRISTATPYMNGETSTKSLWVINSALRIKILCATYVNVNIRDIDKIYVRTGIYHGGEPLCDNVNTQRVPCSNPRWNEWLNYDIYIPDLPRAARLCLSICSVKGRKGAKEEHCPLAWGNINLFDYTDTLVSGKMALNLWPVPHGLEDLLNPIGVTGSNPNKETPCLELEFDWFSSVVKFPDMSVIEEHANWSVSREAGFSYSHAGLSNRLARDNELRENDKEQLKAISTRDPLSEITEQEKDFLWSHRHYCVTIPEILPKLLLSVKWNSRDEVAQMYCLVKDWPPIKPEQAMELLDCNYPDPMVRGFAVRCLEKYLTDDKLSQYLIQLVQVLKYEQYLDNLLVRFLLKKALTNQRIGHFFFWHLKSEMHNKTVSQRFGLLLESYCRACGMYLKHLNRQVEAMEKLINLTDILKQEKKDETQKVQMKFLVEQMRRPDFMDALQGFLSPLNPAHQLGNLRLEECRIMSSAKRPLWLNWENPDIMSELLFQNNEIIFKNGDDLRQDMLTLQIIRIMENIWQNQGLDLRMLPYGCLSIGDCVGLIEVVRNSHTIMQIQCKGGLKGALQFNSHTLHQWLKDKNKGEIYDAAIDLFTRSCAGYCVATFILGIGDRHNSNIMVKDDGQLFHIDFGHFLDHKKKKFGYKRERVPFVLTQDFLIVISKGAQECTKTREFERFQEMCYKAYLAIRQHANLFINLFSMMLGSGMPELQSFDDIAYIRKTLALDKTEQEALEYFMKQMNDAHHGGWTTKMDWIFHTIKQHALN
T1 sequence (P27986 whole entry partner): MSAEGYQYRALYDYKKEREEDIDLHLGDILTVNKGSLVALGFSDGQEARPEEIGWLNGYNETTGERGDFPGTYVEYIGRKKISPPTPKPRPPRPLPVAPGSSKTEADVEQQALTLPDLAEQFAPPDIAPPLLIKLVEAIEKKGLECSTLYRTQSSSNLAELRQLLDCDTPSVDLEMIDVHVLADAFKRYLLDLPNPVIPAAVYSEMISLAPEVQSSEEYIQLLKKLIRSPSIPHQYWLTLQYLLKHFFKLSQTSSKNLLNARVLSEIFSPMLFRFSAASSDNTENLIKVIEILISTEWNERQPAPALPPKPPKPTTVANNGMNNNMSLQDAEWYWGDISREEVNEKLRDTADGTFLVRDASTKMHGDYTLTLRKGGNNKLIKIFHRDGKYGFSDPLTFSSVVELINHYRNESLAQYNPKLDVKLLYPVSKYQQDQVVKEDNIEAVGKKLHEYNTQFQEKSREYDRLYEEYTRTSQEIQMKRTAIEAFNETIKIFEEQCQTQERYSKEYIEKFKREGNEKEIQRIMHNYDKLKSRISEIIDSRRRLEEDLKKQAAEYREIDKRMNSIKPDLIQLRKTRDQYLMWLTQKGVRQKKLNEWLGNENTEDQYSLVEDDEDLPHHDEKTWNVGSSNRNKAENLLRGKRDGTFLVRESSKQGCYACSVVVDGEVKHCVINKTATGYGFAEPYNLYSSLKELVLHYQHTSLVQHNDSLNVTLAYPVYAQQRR
hPI3K‐C2α (PIK3C2A), sequence (O00443 whole entry): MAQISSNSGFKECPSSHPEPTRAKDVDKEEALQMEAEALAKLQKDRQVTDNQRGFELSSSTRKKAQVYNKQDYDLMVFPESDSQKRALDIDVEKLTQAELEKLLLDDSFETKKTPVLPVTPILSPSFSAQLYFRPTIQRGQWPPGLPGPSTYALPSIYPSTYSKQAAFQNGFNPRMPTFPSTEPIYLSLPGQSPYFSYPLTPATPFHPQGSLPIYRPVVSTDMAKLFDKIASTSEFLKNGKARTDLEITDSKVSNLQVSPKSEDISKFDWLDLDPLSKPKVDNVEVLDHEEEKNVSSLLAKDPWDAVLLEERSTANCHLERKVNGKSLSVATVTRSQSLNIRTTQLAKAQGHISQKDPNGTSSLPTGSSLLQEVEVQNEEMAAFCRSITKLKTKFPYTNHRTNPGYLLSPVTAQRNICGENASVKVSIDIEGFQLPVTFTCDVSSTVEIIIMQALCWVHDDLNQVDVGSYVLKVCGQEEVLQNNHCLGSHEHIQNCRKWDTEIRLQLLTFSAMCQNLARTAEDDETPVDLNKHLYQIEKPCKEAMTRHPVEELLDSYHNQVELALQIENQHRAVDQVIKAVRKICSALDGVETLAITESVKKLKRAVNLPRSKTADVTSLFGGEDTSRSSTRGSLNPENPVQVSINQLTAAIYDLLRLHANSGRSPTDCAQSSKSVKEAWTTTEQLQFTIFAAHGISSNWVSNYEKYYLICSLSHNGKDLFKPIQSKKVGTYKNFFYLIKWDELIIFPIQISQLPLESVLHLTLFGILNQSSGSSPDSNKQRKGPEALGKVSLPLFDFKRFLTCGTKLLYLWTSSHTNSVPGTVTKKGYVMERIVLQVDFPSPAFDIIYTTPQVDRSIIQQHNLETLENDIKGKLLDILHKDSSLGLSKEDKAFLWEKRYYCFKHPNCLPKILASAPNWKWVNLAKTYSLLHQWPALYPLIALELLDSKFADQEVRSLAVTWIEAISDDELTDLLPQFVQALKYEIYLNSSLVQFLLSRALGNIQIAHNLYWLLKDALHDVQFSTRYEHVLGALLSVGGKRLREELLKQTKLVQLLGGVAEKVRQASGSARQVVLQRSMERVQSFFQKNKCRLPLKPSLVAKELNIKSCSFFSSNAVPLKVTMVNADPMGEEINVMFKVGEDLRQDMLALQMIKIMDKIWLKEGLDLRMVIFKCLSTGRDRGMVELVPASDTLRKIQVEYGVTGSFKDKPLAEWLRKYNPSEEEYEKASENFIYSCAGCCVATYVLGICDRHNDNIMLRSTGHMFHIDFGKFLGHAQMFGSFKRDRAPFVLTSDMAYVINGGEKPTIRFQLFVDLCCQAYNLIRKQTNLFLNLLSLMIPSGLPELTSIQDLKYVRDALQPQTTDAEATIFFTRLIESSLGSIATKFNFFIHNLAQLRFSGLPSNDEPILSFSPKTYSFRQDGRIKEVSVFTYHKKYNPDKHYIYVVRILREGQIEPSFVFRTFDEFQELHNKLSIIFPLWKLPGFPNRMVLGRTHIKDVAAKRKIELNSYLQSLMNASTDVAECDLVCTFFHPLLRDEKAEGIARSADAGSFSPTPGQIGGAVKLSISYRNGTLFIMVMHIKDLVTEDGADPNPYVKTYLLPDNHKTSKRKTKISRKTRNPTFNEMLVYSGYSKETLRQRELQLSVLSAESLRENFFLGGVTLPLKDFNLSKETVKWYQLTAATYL

As for `O=C(O)c1cccc(Cn2cc(-c3cccc4c(=O)cc(N5CCOCC5)[nH]c34)nn2)c1` [Compound 37, 3‐{[4‐(2‐Morpholino‐4‐oxo‐1,4‐dihydroquinolin‐8‐yl)‐1H‐1,2,3‐triazol‐1‐yl]methyl}benzoic acid], the “Akt phosphorylation after insulin stimulation” value in test [1] was “did not decrease Akt phosphorylation”. Besides, the IC50 (commonly the midpoint of a concentration-inhibition curve) came out at 3.7 ± 1.1 µM at hPI3K‐C2α (PIK3C2A) and 0.018 ± 0.004 µM in test [2] (Table 2, mean of at least three determinations, 95 % confidence intervals, read-out: IC50 PI3Kα). For the same molecule, the inhibition at 1 µM in test [2] (determined at 1 μM, at least triplicate, read-out: Inhibitory activity, PI3K isoform α) is more than 50%.
In the case of `COC(=O)c1cccc(Cn2cc(-c3cccc4c(=O)cc(N5CCOCC5)[nH]c34)nn2)c1` [Compound 64, Methyl 3‐{[4‐(2‐morpholino‐4‐oxo‐1,4‐dihydroquinolin‐8‐yl)‐1H‐1,2,3‐triazol‐1‐yl]methyl}benzoate], the “Akt phosphorylation after insulin stimulation” value in test [1] is “able to inhibit the PI3K‐signaling pathway in a dose‐dependent manner”. For the same molecule, in test [2] (at 100 nM), the “inhibition of PI3Kα activity” value is given as “not able to inhibit PI3Kα activity”.
